Data published in patent US11691992B2 (Anacor Pharmaceuticals, Inc., priority 2017, dated 2023).
Like-named read-outs stand apart in the source and are kept apart here.

Assays:
Assay type in all cases: cell-based
[1] = tested on: luciferase-expressing L. major parasites developing intracellularly inside RAW 264.7 macrophages; assay: Leishmania major intracellular amastigote assay in RAW 264.7 macrophages (luciferase); settings: RAW264.7, 96 hours, read-out: IC50: I Org. intracellular amastigote Growth L. major, 4 d
From the text: Example 107. Assay for Leishmania major Intracellular Amastigote Assay in RAW 264.7 Macrophages
The intracellular amastigote assay is a microtiter plate drug sensitivity assay that uses the activity of luciferase as a measure of proliferation of luciferase-expressing L. major parasites developing intracellularly inside RAW 264.7 macrophages in the presence of antileishmanial drugs or experimental compounds. (Buckner, F. S., and A. J. Wilson. Am J Prop Med Hyg, 2005, 72(5): 600-605.) As the activity of luciferase and its associated luminescence after addition of the substrate, luciferin, is relative to parasite growth, a test compound that inhibits the growth of the parasite will result in a lower luminescence. The luciferase-expressing L. major parasite used in this assay is genetically modified by adding the luciferase coding region to the pLEXSY-hyg2 vector (Jena Biosciences). The luciferase expression construct was created by digesting the luciferase coding region (1.66 kbp) of pGL3-Basic (Promega) by using two restriction enzymes, NcoI/EagI, followed by electrophoretic separation of the luciferase coding region on a 1% agarose gel. The luciferase coding region was then ligated into pLEXSY-hyg2 vector (Jena Biosciences) which had previously been digested with NcoI/NotI. The vector was linearized with SwaI and subsequently gel purified prior to transfection into L. major parasites. Transfections were carried out by electroporation at 480V, 13Ω, and 500 μF (0.4 mL of 1×10^8 parasites/mL, and 0.1 mL of 10 μg DNA). Selection for transfectants was then carried out using hygromycin B (100 μg/mL). RAW 264.7 macrophages were cultured in DMEM media (ATCC Cat #30-2002) supplemented with heat-inactivated 10% FBS (Invitrogen Cat #10438-034). To begin the assay, macrophages were harvested from culture by removing all spent media, adding in 10 mL fresh media, scraping cells, and counted using Trypan Blue. The cells were resuspended in DMEM/10% HIFBS media at 2.0×10^5 cells/mL, and then dispensed in a volume of 50 μL to yield a final concentration of 10,000 macrophages/well in 384 well tissue-culture treated sterile white plates (Nunc Cat #12-565-343) using a Tecan EVO Freedom robotics system. The plates were then incubated at 37° C. overnight in 5% CO2 atmosphere for 24 hours. After overnight incubation, the media was removed from each well using the Tecan EVO Freedom robot, and L. major promastigotes were added to each well and allowed to invade the RAW macrophages. Promastigotes were cultured in Schneider's medium (Invitrogen Cat #11720-067) supplemented with 20% heat inactivated FBS. Metacyclic stage promastigotes provide the best invasion for this assay, and cultures should be grown to increase the percentage of metacyclic promastigotes for best results. Promastigotes were harvested from culture, counted, suspended at 2×10^6 promastigotes/mL in DMEM/HIFBS media, and 100,000 promastigotes were dispensed per well in a volume of 50 μL. After overnight incubation, the media was removed from each well using the Tecan Freedom EVO robot, and each well was subsequently washed three times with 40 μF of fresh DMEM/HIFBS medium to remove all extracellular promastigotes. After the third wash, 69.2 μF of DMEM/HIFBS medium was added to each well using the Tecan EVO Freedom robot. Drug plates were prepared with the Tecan EVO Freedom using sterile 96 well plates containing twelve duplicate two-fold serial dilutions of each test compound suspended in DMSO. 7.8 μF of diluted test compound was added to the 69.2 μF of media present in each well providing a 10 fold final dilution of compound. The final concentration range tested was 0.5 to 10,000 ng/ml for all assays. The plates were next incubated at 37° C. and 5% CO2 for 96 hours. After 96 hours of incubation, 7.5 μF of a luciferin solution (Caliper Fife Science) diluted to 150 μg/mF was added to each well, and the plates were incubated for 30 minutes at 37° C., in the dark. […]

[2] = tested on: TdTomato-modified T. cruzi (CL strain) in Vero cells; assay: In vitro IC50 measurement of T. cruzi amastigote killing using TdTomato-modified T. cruzi (CL strain); settings: Trypanosoma cruzi, 72 h, fluorescence, read-out: IC50: I Org. amastigote Growth T. cruzi CL TdTomato, 3 d
Method: Example 112. In Vitro IC50 Measurement of T. cruzi Amastigote Killing Using TdTomato-Modified T. cruzi (CL Strain)
The T. cruzi parasites used in this assay were genetically modified to express Td Tomato fluorescent protein. Vero cells (African green monkey kidney epithelial cells) were harvested from continuous cultures using trypsin and added to the inner 60 wells of 96-well Greiner Bio One plates (plate catalog #655090) at 200 ul/well of […]. Cells were allowed to adhere for 1 h before infection with T. cruzi. T. cruzi for infection were harvested from previously-infected Vero cells, washed, pelleted and resuspended at 5×10^6/mL. 50 uL of parasites were added to each well containing Vero cells. Compounds were prepared from 5 mM stock concentrations in DMSO to final concentrations in wells ranging from 5 uM to 5 nM. Wells were provided for negative controls, lacking compounds. Plates were placed into a 37° C. incubator for 20 min, then a “Day 0” reading was taken on a Synergy H4 plate reader to record initial fluorescence levels, at 544 (excitation) and 612 nm (emission). 96-well plates were placed in Tupperware containers with wet paper towels and incubated at 37° C. incubator for 72 h. After 72 h plates were reread (Day 3 reading) and data analyzed using Excel and/or Graphpad software. Day 0 fluorescence was subtracted from Day 3 to remove input parasite fluorescence. Growth curves are generated and 50% and 90% inhibitory concentrations are determined by nonlinear regression analysis.

[3] = tested on: bloodstream forms of T. b. rhodesiense STIB 900; assay: T. brucei rhodesiense STIB 900 growth inhibition assay; settings: Trypanosoma brucei, 72 h
From the text: Example 110. T. brucei rhodesiense STIB 900 Growth Inhibition Assay
The parasite strain used in this assay was isolated in 1982 from a human patient in Tanzania and after several mouse passages cloned and adapted to axenic culture conditions, ((a) Baltz, T., D. Baltz, C. Giroud, and J. Crockett. EMBO Journal, 1985, 4:1273-1277. (b) Thuita, J. K., S. M. Karanja, T. Wenzler, R. E. Mdachi, J. M. Ngotho, J. M. Kagira, R. Tidwell, and R. Brun. Acta Tropica 2008, 108:6-10.) Minimum Essential Medium (50 μl) supplemented with 25 mM HEPES, 1 g/l additional glucose, 1% MEM non-essential amino acids (100×), 0.2 mM 2-mercaptoethanol, 1 mM Na-pyruvate and 15% heat inactivated horse serum was added to each well of a 96-well microtiter plate. Serial drug dilutions of seven 3-fold dilution steps covering a range from 90 to 0.123 μg/ml were prepared. Then 10^4 bloodstream forms of T. b. rhodesiense STIB 900 in 50 μl was added to each well and the plate incubated at 37° C. under a 5% CO2 atmosphere for 72 h. 10 μl Alamar Blue (resazurin, 12.5 mg in 100 ml double-distilled water) was then added to each well and incubation continued for a further 2-4 h, (Raz, B., M. Iten, Y. Grether-Buhler, R. Kaminsky, and R. Brun. Acta Trap 1997, 68:139-47.) Then the plates were read with a Spectramax Gemini XS microplate fluorometer (Molecular Devices Cooperation, Sunnyvale, Calif., USA) using an excitation wave length of 536 nm and an emission wave length of 588 nm. Data were analyzed using the microplate reader software Softmax Pro (Molecular Devices Cooperation, Sunnyvale, Calif., USA).

[4] = tested on: L. infantum MHOM/MA(BE)/67 amastigotes in primary peritoneal mouse macrophages; assay: Leishmania infantum intracellular amastigote assay in mouse macrophages; settings: Macrophage, 120 h
Method: Example 111. Leishmania infantum Intracellular Amastigote Assay in Mouse Macrophages
L. infantum MHOM/MA(BE)/67 amastigotes were collected from the spleen of an infected donor hamster and used to infect primary peritoneal mouse macrophages. (Kaiser, M., Maes, L., Tadoori, L. P., Spangenberg, T., Ioset, J.-R. J. Biomol. Screen. 2015 20(5), 634-35.) To determine in vitro antileishmanial activity, 3×10^4 macrophages were seeded in each well of a 96-well plate. Culture medium was RPMI-1640 supplemented with L-glutamine (20 mM), 16.5 mM sodium hydrogen carbonate, and 10% fetal calf serum (FCS). After 2 d of outgrowth, 5×10^5 amastigotes/well were added and incubated for 2 h at 37° C. Prediluted samples to be tested were subsequently added, and the plates were further incubated for 5 d at 37° C. and 5% CO2. Total parasite burdens in the well were microscopically assessed after Giemsa staining and expressed as a percentage of the total burden in the blank controls without compound. In treated wells with high amastigote burdens, an overall estimate of the total burden per well was made without discrimination between the number of infected macrophages and the number of amastigotes per infected cell. In treated wells with low burdens, exact counting was performed. The 50% inhibitory concentrations (IC50s) were then generated for each dose response test using GraphPad Prism (GraphPad Software Inc., San Diego, Calif.) using the nonlinear regression (sigmoidal dose-response/variable slope) equation.

[5] = tested on: IL3000 T. congolense (drug sensitive) strain; assay: In vitro Alamar Blue 72 h drug sensitivity assay for T. congolense; settings: Trypanosoma congolense; for IC50: bloodstream form, 69 h + 3 h resazurin, 34° C., classes A-C, read-out: IC50: I Org. Growth T. congolense IL-3000, 3 d
Method: Example 106. In Vitro Alamar Blue 72 h Drug Sensitivity Assay for T. congolense
Compounds were tested in vitro for chemotherapeutic potency against the IL3000 T. congolense (drug sensitive) strain, using the Alamar Blue assay with several modifications. Test compounds were prepared as 10 mg/mL DMSO stocks for each assay run. Compounds were assayed in at least three separate, independent test runs and an 11-point dilution curve was used to determine the IC50 values. Bloodstream form trypanosomes were supported in HMI media containing 20% bovine serum and were incubated with test compounds for 69 h at 34° C. in a humidified atmosphere containing 5% CO2. Thereafter, 10 μL of Resazurin dye (12.5 mg in 100 mL of phosphate buffered saline, Sigma-Aldrich, Buchs, Switzerland) were added for an additional 3 h. Plates were then read using a fluorescent plate reader (Spectramax, Gemini XS, Bucher Biotec, Basel, Switzerland) using an excitation wavelength of 536 nm and an emission wavelength of 588 nm. Data points were averaged to generate sigmoidal dose-response curves and IC50 values were determined using Softmax Pro 5.2 software.

[6] = bloodstream forms, Alamar Blue, protocol of Example 110, read-out: IC50: I Org. Growth T. brucei rhodesiense STIB 900, 3 d
[7] = amastigotes in primary peritoneal mouse macrophages, 5 d, Giemsa staining, read-out: Inhibition of Organism Growth in Leishmania infantum MHOM/MA/BE/67, 5 d

IC50 [4, 7] [µM] | Structure (SMILES) | IC50 [2] [nM] | IC50 [3, 6] [µM] | further results
– | Cc1c(C(=O)Nc2ccc3c(c2)B(O)OC3)nnn1C1CCC1 [Example 42, 1-cyclobutyl-N-(1-hydroxy-1,3-dihydrobenzo[c][1,2]oxaborol-6-yl)-5-methyl-1H-1,2,3-triazole-4-carboxamide] | 600 to 1000 | – | IC50 [1]: 1100 to 9900 nM
< 3 | Cc1cccc(-c2nc(C(=O)Nc3ccc4c(c3)B(O)OC4)nn2C)n1 [Example 74, N-(1-hydroxy-1,3-dihydrobenzo[c][1,2]oxaborol-6-yl)-1-methyl-5-(6-methylpyridin-2-yl)-1H-1,2,4-triazole-3-carboxamide] | – | 0.1 to 0.3 | –
3 to 19.9 | Cn1nc(C(=O)Nc2ccc3c(c2)B(O)OC3)nc1-c1ccc(Cl)cn1 [Example 77, 5-(5-Chloropyridin-2-yl)-N-(1-hydroxy-1,3-dihydrobenzo[c][1,2]oxaborol-6-yl)-1-methyl-1H-1,2,4-triazole-3-carboxamide] | – | 0.1 to 0.3 | inhibition at 1 µM ([5]; read-out: inhibition of T. congolense IL-3000 growth at a concentration of 1.0 μM (classes D, E)): > 75%
3 to 19.9 | Cn1c(C(=O)Nc2ccc3c(c2)B(O)OC3)nnc1-c1ccccn1 [Example 73, N-(1-hydroxy-1,3-dihydrobenzo[c][1,2]oxaborol-6-yl)-4-methyl-5-(pyridine-2-yl)-4H-1,2,4-triazole-3-carboxamide] | – | 0.1 to 0.3 | –
– | Cc1c(C(=O)Nc2ccc3c(c2)B(O)OC3C)nnn1-c1ccccc1 (centres unmarked) [Example 1, N-(1-hydroxy-1,3-dihydrobenzo[c][1,2]oxaborol-6-yl)-5-methyl-1-phenyl-1H-Example 11,2,3-triazole-4-carboxamide] | < 600 | – | IC50 [1]: ≤ 1000 nM
– | Cn1nc(C(=O)Nc2ccc3c(c2)B(O)OC3)nc1-c1cccnc1 [Example 78a, N-(1-hydroxy-1,3-dihydrobenzo[c][1,2]oxaborol-6-yl)-1-methyl-5-(pyridin-3-yl)-1H-1,2,4-triazole-3-carboxamide] | – | – | IC50 ([3]; read-out: IC50: I Org. Growth T. brucei rhodesiense STIB 900, 3 d [uM]): 0.31 to 10 µM; IC50 ([4]; read-out: Inhibition of Organism Growth in Leishmania infantum MHOM/MA/BE/67, 5 d [uM]): 3 to 19.9 µM
– | CCCc1c(C(=O)Nc2ccc3c(c2)B(O)OC3)nnn1-c1ccccn1 [Example 50, N-(1-hydroxy-1,3-dihydrobenzo[c][1,2]oxaborol-6-yl)-5-propyl-1-(pyridin-2-yl)-1H-1,2,3-triazole-4-carboxamide] | < 600 | – | IC50 [5]: 100 to 300 nM
– | CC(C)c1c(C(=O)Nc2ccc3c(c2)B(O)OC3)nnn1-c1ccccn1 [Example 51, N-(1-hydroxy-1,3-dihydrobenzo[c][1,2]oxaborol-6-yl)-5-isopropyl-1-(pyridin-2-yl)-1H-1,2,3-triazole-4-carboxamide] | 600 to 1000 | – | IC50 [5]: 100 to 300 nM
